Test results taken from US6511997B1, “Aminopyrazole derivatives” (Teikoku Hormone Mfg. Co., Ltd., priority 1998, dated 2003).

Work on `CCn1nc(-c2ccc(F)cc2)c(-c2ccncc2)c1NC(=O)Cc1ccccc1` [Example 97, 1-Ethyl-3-(4-fluorophenyl)-5-phenylacetylamino-4-(4-pyridyl)pyrazole] yielded a melting point of 219 to 221.2 °C.
Compound `COc1cccc(CC(=O)Nc2c(-c3ccncc3)c(-c3ccc(F)cc3)nn2C)c1` [Example 63, 3-(4-Fluorophenyl)-5-(3-methoxyphenylacetylamino)-1-methyl-4-(4-pyridyl)pyrazole] has a melting point of 135 to 141.2 °C.
`COCC(=O)Nc1n[nH]c(-c2ccc(F)cc2)c1-c1ccncc1` [Example 15, 5-(4-Fluorophenyl)-3-methoxyacetylamino-4-(4-pyridyl)pyrazole] gave a melting point of 246 to 248 °C.
`O=S(=O)(Nc1n[nH]c(-c2ccc(F)cc2)c1-c1ccncc1)c1ccccc1` [Example 139, 5-(4-fluorophenyl)-3-phenylsulfonylamino-4-(4-pyridyl)pyrazole] gave a melting point of 181 to 183.3 °C.
Compound `COc1ccccc1CC(=O)Nc1c(-c2ccncc2)c(-c2ccc(F)cc2)nn1CCOCc1ccccc1` [Example 103, 1-(2-Benzyloxyethyl)-3-(4-fluorophenyl)-5-(2-methoxyphenylacetylamino)-4-(4-pyridyl)pyrazole] has a melting point of 142.9 to 144.2 °C.
With `O=C(Cc1ccccc1[N+](=O)[O-])Nc1n[nH]c(-c2ccc(F)cc2)c1-c1ccncc1` [Example 92, 5-(4-fluorophenyl)-3-(2-nitrophenylacetylamino)-4-(4-pyridyl)pyrazole] the melting point was 242.4 to 244.1 °C.
`O=C(Nc1n[nH]c(-c2ccc(F)cc2)c1-c1ccncc1)c1ccccc1` [Example 13, 3-Benzoylamino-5-(4-fluorophenyl)-4-(4-pyridyl)pyrazole] gave a melting point of 270.5 to 276.1 °C.
Work on `Cn1nc(-c2ccc(F)cc2)c(-c2ccncc2)c1NC(=O)Cc1c(F)ccc([N+](=O)[O-])c1Cl` [Example 83, 5-(2-chloro-6-fluoro-3-nitrophenylacetylamino)-3-(4-fluorophenyl)-1-methyl-4-(4-pyridyl)pyrazole] yielded a melting point of 129.2 to 130.6 °C.
With `Cn1nc(-c2ccc(F)c(Cl)c2)c(-c2ccncc2)c1NC(=O)Cc1c(F)c(F)c(F)c(F)c1F` [Example 114, 3-(3-Chloro-4-fluorophenyl)-1-methyl-5-(2,3,4,5,6-pentafluorophenylacetylamino)4-(4-pyridyl)pyrazole] the melting point was 194.7 to 196 °C.
With `Cn1nc(-c2ccc(F)cc2)c(-c2ccncc2)c1NC(=O)Cc1ccc(Cl)cc1Cl` [Example 41, 5-(2,4-Dichlorophenylacetylamino)-3-(4-fluorophenyl)-1-methyl-4-(4-pyridyl)pyrazole] the melting point was 224.3 to 225.4 °C.
With `COc1ccc(CC(=O)N(C)c2c(-c3ccncc3)c(-c3ccc(F)cc3)nn2C)cc1` [Example 126, 3-(4-Fluorophenyl)-1-methyl-5-[N-methyl-N-(4-methoxyphenylacetyl)amino]-4-(4-pyridyl)pyrazole] the melting point was 175.8 to 178.1 °C.
Compound `CN(C(=O)Cc1c(Cl)cccc1Cl)c1c(-c2ccncc2)c(-c2ccc(F)cc2)nn1C` [Example 122, 5-[N-(2,6-dichlorophenylacetyl)-N-methylamino]-3-(4-fluorophenyl)-1-methyl-4-(4-pyridyl)pyrazole] has a melting point of 205.7 to 207.8 °C.
Compound `COc1ccccc1CC(=O)Nc1c(-c2ccncc2)c(-c2ccc(F)cc2)nn1C` [Example 69, 3-(4-Fluorophenyl)-5-(2-methoxyphenylacetylamino)-1-methyl-4-(4-pyridyl)pyrazole] has a melting point of 206.8 to 209.2 °C.
Compound `Cc1ccc(C)c(CC(=O)Nc2c(-c3ccncc3)c(-c3ccc(F)cc3)nn2C)c1` [Example 51, 5-(2,5-Dimethylphenylacetylanino)-3-(4-fluorophenyl)-1-methyl-4-(4-pyridyl)pyrazole] has a melting point of 179.9 to 185.1 °C.
With `O=C(Cc1ccncc1)Nc1n[nH]c(-c2ccc(F)cc2)c1-c1ccncc1` [Example 29, 5-(4-Fluorophenyl)-4-(4-pyridyl)-3-(4-pyridylacetylamino)pyrazole] the melting point was 248.3 to 251.8 °C (dec.).
Compound `CN(C(=O)Cc1ccccc1Cl)c1c(-c2ccncc2)c(-c2ccc(F)cc2)nn1-c1ccccc1` [Example 130, 3-(4-Fluorophenyl)-5-[N-methyl-N-(2-chlorophenylacetyl)amino]-1-phenyl-4-(4-pyridyl)pyrazole] has a melting point of 203.8 to 205.6 °C.
`Cn1nc(-c2ccc(F)cc2)c(-c2ccncc2)c1NC(=O)Cc1c(F)cccc1F` [Example 46, 5-(2,6-Difluorophenylacetylamino)-3-(4-fluorophenyl)-1-methyl-4-(4-pyridyl)pyrazole] showed a melting point of 239.9 to 242.5 °C.
For `CC(C)(C)OC(=O)N1CCC[C@H]1C(=O)Nc1n[nH]c(-c2ccc(F)cc2)c1-c1ccncc1` [Example 88, 3-(N′-Carbo-t-butoxy-L-prolylamino)-5-(4-fluorophenyl)-4-(4-pyridyl)pyrazole], the melting point was 124.6 to 125.7 °C.
For `CC(C)(C)C(=O)Nc1n[nH]c(-c2ccc(F)cc2)c1-c1ccncc1` [Example 21, 5-(4-Fluorophenyl)-4-(4-pyridyl)-3-pivaloylaminopyrazole], the melting point was 217.9 to 220.6 °C.
Compound `O=C(Nc1n[nH]c(-c2ccc(F)cc2)c1-c1ccncc1)C(c1ccccc1)c1ccccc1` [Example 32, 3-Diphenylacetylamino-5-(4-fluorophenyl)-4-(4-pyridyl)pyrazole] has a melting point of 266.5 to 269.2 °C.
In the case of `Cn1nc(-c2ccc3c(c2)OCO3)c(-c2ccncc2)c1NC(=O)Cc1ccc(F)c(Cl)c1` [Example 110, 5-(3-Chloro-4-fluorophenylacetylamino)-1-methyl-3-(3,4-methylenedioxyphenyl)-4-(4-pyridyl)pyrazole], the melting point is reported as 206.9 to 208.7 °C.
With `O=C(CO)Nc1n[nH]c(-c2ccc(F)cc2)c1-c1ccncc1` [Example 14, 5-(4-Fluorophenyl)-3-hydroxyacetylamino-4-(4-pyridyl)pyrazole] the melting point was 264 to 266 °C.
Work on `Cn1nc(NC(=O)Cc2ccccc2)c(-c2ccncc2)c1-c1ccc(F)cc1` [Example 116, 5-(4-fluorophenyl)-1-methyl-3-phenylacetylamino-4-(4-pyridyl)pyrazole] yielded a melting point of 157.6 to 160.1 °C.
For `Cn1nc(-c2ccc(F)cc2)c(-c2ccncc2)c1NC(=O)Cc1cccc(N)c1` [Example 94, 5-(3-Aminophenylacetylamino)-3-(4-fluorophenyl)-1-methyl-4-(4-pyridyl)pyrazole], the melting point was 110.6 to 119 °C.
Work on `COc1ccc(CC(=O)Nc2c(-c3ccncc3)c(-c3ccc(F)cc3)nn2C)cc1OC` [Example 44, 5-(3,4-Dimethoxyphenylacetylamino)-3-(4-fluorophenyl)-1-methyl-4-(4-pyridyl)pyrazole] yielded a melting point of 174.4 to 180.3 °C.
`Cc1cc(C)cc(CC(=O)Nc2c(-c3ccncc3)c(-c3ccc(F)cc3)nn2C)c1` [Example 50, 5-(3,5-Dimethylphenylacetylamino)-3-(4-fluorophenyl)-1-methyl-4-(4-pyridyl)pyrazole] showed a melting point of 211.2 to 212.4 °C.
For `O=C(Cc1ccsc1)Nc1n[nH]c(-c2ccc(F)cc2)c1-c1ccncc1` [Example 28, 5-(4-Fluorophenyl)-4-(4-pyridyl)-3-(3-thienylacetylamino)pyrazole], the melting point was 279.6 to 282.9 °C (dec.).
`Cn1nc(-c2ccc(F)cc2)c(-c2ccncc2)c1NC(=O)Cc1ccc(F)cc1Cl` [Example 39, 5-(2-Chloro-4-fluorophenylacetylamino)-3-(4-fluorophenyl)-1-methyl-4-(4-pyridyl)pyrazole] gave a melting point of 229 to 232.7 °C.
Compound `CN(C(=O)Cc1ccccn1)c1c(-c2ccncc2)c(-c2ccc(F)cc2)nn1C` [Example 129, 3-(4-Fluorophenyl)-1-methyl-5-[N-methyl-N-(2-pyridylacetyl)amino]-4-(4-pyridyl)pyrazole] has a melting point of 144 to 145.2 °C.
In the case of `CC(C)[C@H](NC(=O)OC(C)(C)C)C(=O)Nc1n[nH]c(-c2ccc(F)cc2)c1-c1ccncc1` [Example 87, 3-(N′-Carbo-t-butoxy-L-valylamino)-5-(4-fluorophenyl)-4-(4-pyridyl)pyrazole], the melting point is reported as 217.1 to 217.6 °C.
Compound `CN(C(=O)Cc1ccc(F)cc1)c1c(-c2ccncc2)c(-c2ccc(F)cc2)nn1C` [Example 125, 3-(4-Fluorophenyl)-5-[N-(4-fluorophenylacetyl)-N-methylamino]-1-methyl-4-(4-pyridyl)pyrazole] has a melting point of 124.1 to 125.6 °C.
Work on `O=C(Cc1ccccc1)Nc1n[nH]c(-c2ccc(F)cc2)c1-c1ccnc2ccccc12` [Example 10, 5-(4-Fluorophenyl)-4-(4-quinolyl)-3-phenylacetylaminopyrazole] yielded a melting point of 273.4 to 275.3 °C.
With `COc1ccc(CC(=O)Nc2n[nH]c(-c3ccc(F)cc3)c2-c2ccncc2)cc1` [Example 3, 5-(4-Fluorophenyl)-3-(4-methoxyphenylacetylanino)-4-(4-pyridyl)pyrazole] the melting point was 265.1 to 266.2 °C.
Compound `CC(C(=O)Nc1c(-c2ccncc2)c(-c2ccc(F)cc2)nn1C)c1ccccc1` (stereo not drawn) [Example 73, 3-(4-Fluorophenyl)-1-methyl-5-(2-phenylpropionylamino)-4-(4-pyridyl)pyrazole] has a melting point of 210 to 214.9 °C.
With `Cn1nc(-c2ccc(F)cc2)c(-c2ccncc2)c1NC(=O)Cc1ccc(F)cc1` [Example 62, 3-(4-Fluorophenyl)-5-(4-fluorophenylacetylamino)-1-methyl-4-(4-pyridyl)pyrazole] the melting point was 217.3 to 219.7 °C.
In the case of `Cn1nc(-c2ccc(F)cc2)c(-c2ccncc2)c1NC(=O)Cc1c(F)cccc1Cl` [Example 36, 5-(2-Chloro-6-fluorophenylacetylamino)-3-(4-fluorophenyl)-1-methyl-4-(4-pyridyl)pyrazole], the melting point is reported as 216.9 to 224.6 °C.
For `CC(C(=O)Nc1n[nH]c(-c2ccc(F)cc2)c1-c1ccncc1)c1ccccc1` (stereo not drawn) [Example 5, 5-(4-Fluorophenyl)-3-(2-phenylpropionylamino)-4-(4-pyridyl)pyrazole], the melting point was 240.6 to 241 °C.
For `Cn1nc(-c2ccc(F)cc2)c(-c2ccncc2)c1NC(=O)Cc1ccc(Cl)c(Cl)c1` [Example 37, 5-(3,4-Dichlorophenylacetylamino)-3-(4-fluorophenyl)-1-methyl-4-(4-pyridyl)pyrazole], the melting point was 205.1 to 207 °C.
`Cn1nc(-c2ccc(F)cc2)c(-c2ccncc2)c1NC(=O)Cc1ccc(O)cc1` [Example 95, 5-(4-hydroxyphenylacetylamino)-3-(4-fluorophenyl)-1-methyl-4-(4-pyridyl)pyrazole] showed a melting point of 127.1 to 128.6 °C.
